In patent US9956157B2, “Composition containing fucosterol for skin whitening or moisturizing” (INDUSTRY-ACADEMIC COOPERATION FOUNDATION, YONSEI UNIVERSITY, priority 2014, dated 2018):

Assays:
Type in all cases: cell-based
[1] = tested on: HaCaT human keratinocytes; assay: Cornified envelope formation in HaCaT human keratinocytes (absorbance 340 nm); conditions: HaCaT cells, fucosterol 5, 10, 20 μM, 96 hrs, p<0.05, FIG. 8
Protocol: HaCaT human keratinocytes were incubated in a Dulbecco's Modified Eagle's Media (DMEM) medium including 10% fetal bovine serum and then put in a 6-well plate with 2×10^5 cell/ml (the final volume of 3 ml). After being incubated for 24 hrs, the medium was removed and fucosterol which was dissolved in the DMEM medium was treated at 5, 10, and 20 μM concentrations, respectively. After incubation for 96 hrs, the incubated medium was removed from the 6-well plate to collect a cell pellet, and the cell pellet was transferred to a 1.5 mL tube and centrifuged for 10 min at 10,000 rpm to remove a supernatant. The obtained pellet was added with a Tris buffer solution including 2% sodium dodecyl sulfate (SDS) and 20 mM dithiothreitol (DTT) and boiled, and the absorbance was measured at 340 nm to evaluate the effect on cornified envelope formation. According to Equation 1 below, the formation degree of the cornified envelope compared with the control group was calculated and the result was illustrated in FIG. 8. Cornified envelope formation amount (%) compared with control group=absorbance of each test material/absorbance of control group×100 […]

caspase 14 = assay: Caspase 14 protein expression (western blot) in HaCaT human keratinocytes; conditions: HaCaT cells, fucosterol 5, 10, 20 μM, 24 hrs, FIG. 12
Protocol: (§1) HaCaT human keratinocytes were incubated in a Dulbecco's Modified Eagle's Media (DMEM) medium including 10% fetal bovine serum and then put in a 6-well plate with 2×10^5 cell/ml (the final volume of 3 ml). After being incubated for 24 hrs, the medium was removed and fucosterol which was dissolved in the DMEM medium was treated at 5, 10, and 20 μM concentrations, respectively. After 24 hrs, the HaCaT human keratinocytes were lysed with a NP40 buffer solution including proteinase inhibitor cocktail. The protein amount extracted from the HaCaT human keratinocytes was quantified by using a Bradford method. The sample was boiled for 5 min and then the same amount of protein ([…]) was isolated by electrophoresis with 10% SDS-PAGE. The isolated proteins after electrophoresis were transferred to a nitrocellular membrane and western blot was performed. A primary antibody was reacted and the nitrocellular membrane was washed three times by using Tris-buffer saline tween20 (TBST) for 10 min. In this case, the kind and the dilution of the primary antibody used in the present invention is 1:1000. In a secondary antibody reaction, a secondary antibody was put in the membrane performing the primary antibody reaction and reacted for 2 hrs at room temperature. In this case, a dilution of the secondary antibody was 1:5000. […]

involucrin [2] = assay: Involucrin protein expression (western blot) in HaCaT human keratinocytes; conditions: HaCaT cells, fucosterol 5, 10, 20 μM, 24 hrs, FIG. 10
Protocol: as §1

involucrin [3] = assay: Involucrin mRNA expression (RT-PCR) in HaCaT human keratinocytes; conditions: HaCaT cells, fucosterol 5, 10, 20 μM, 24 hrs, FIG. 9
Protocol: HaCaT human keratinocytes were incubated in a Dulbecco's Modified Eagle's Media (DMEM) medium including 10% fetal bovine serum and then put in a 6-well plate with 2×10^5 cell/ml (the final volume of 3 ml). After being incubated for 24 hrs, the medium was removed and fucosterol which was dissolved in the DMEM medium was treated at 5, 10, and 20 μM concentrations, respectively. After 24 hrs, the total RNA was collected by using a TRIzol reagent (Invitrogen, Carlsbad, Calif., USA) and reverse-transcribed and then a reverse transcription-polymerase chain reaction (RT-PCR) analysis was performed below. First, for cDNA synthesis, the RNA was reverse-transcribed by reverse transcriptase. The RT-PCR was performed by specific primers below and the result was illustrated in FIG. 9.

SMILES: C/C=C(\CC[C@@H](C)[C@H]1CC[C@H]2[C@@H]3CC=C4C[C@@H](O)CC[C@]4(C)[C@H]3CC[C@]12C)C(C)C [fucosterol]
- cornified envelope formation [1]: excellent cornified envelope formation effect
- protein expression of caspase 14 (caspase 14): increased
- protein expression of involucrin (involucrin [2]): increased
- mRNA expression of involucrin (involucrin [3]): increased
